From paper PMC7449246, “Natural HDAC‐1/8 inhibitor baicalein exerts therapeutic effect in CBF‐AML” (Clinical and Translational Medicine, 2020)

Key:
HDAC-1 = target: T1, HDAC-1 (Homo sapiens, UniProt Q13547); experiment: fluorogenic deacetylase assay with purified HDAC; supported by CETSA in ME-1 cells (Tagg […] to […] °C); type: biochemical
T1 construct: gene HDAC1

HDAC-8 = target: T2, HDAC-8 (Homo sapiens, UniProt Q9BY41); experiment: as above; type: biochemical
T2 construct: gene HDAC8
T2 sequence (Q9BY41 1-377): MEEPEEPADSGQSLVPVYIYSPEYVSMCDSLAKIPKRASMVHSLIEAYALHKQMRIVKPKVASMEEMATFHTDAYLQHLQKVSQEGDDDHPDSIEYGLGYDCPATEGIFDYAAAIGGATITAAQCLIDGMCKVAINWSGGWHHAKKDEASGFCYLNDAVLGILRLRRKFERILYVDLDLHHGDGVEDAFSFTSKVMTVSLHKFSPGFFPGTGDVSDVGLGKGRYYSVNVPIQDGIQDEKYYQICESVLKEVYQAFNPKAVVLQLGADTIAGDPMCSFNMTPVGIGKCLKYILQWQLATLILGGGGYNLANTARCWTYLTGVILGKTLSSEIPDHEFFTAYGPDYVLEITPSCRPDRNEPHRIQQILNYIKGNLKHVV

T1 sequence (Q13547 whole entry): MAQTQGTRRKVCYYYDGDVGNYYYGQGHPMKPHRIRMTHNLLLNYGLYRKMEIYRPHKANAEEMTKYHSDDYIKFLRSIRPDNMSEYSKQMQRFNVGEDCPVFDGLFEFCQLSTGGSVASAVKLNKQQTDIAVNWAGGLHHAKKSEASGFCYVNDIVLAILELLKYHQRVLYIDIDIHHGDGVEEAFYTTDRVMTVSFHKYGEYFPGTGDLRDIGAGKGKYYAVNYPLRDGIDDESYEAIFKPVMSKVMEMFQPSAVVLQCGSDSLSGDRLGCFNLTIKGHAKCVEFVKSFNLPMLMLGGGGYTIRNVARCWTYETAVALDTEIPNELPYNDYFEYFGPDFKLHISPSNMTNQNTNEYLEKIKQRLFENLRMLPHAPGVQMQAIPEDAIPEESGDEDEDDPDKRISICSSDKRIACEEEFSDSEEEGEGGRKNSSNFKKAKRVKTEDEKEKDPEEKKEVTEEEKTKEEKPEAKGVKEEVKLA

O=c1cc(-c2ccccc2)oc2cc(O)c(O)c(O)c12 [Baicalein]
IC50 (HDAC-1): 46.7 µM
IC50 (HDAC-8): 3.95 µM
